Measurements as given in paper PMC6720452, “Structural Basis for Recruitment of DAPK1 to the KLHL20 E3 Ligase” (Structure(London, England:1993), 2019).

Key:
Kelch domain of KEAP1 = details: ref Tong et al., 2006; cited from earlier work
Excerpt: However, this is weaker than the low nanomolar binding observed for NRF2 interaction with the Kelch domain of KEAP1 ([Tong et al., 2006]). These differences may reflect the strict regulation of NRF2, which ensures its constitutive degradation, or the requirement for substrate co-adaptors as found for KLHL12 ([McGourty et al., 2016]). Alternatively, t ...

Kelch domain of KLHL20 = molecular target: T1, Kelch domain of KLHL20 (Homo sapiens, UniProt Q9Y2M5); test: Surface plasmon resonance, immobilized KLHL20; details: SPR, BIACORE S200, CM5 chip, amine coupling, 25°C, HBS-P buffer, 30 μL/min, peptide 1.6-200 μM, one-site steady-state affinity; representative of two independent experiments; N.B., no binding detected
T1 construct: human KLHL20 (Uniprot Q9Y2M5 isoform 1, M303-E605); hexahistidine tag with TEV cleavage site (N); made in house; host or cells: E. coli BL21(DE3)R3-pRARE2
T1 sequence (Q9Y2M5 303-605): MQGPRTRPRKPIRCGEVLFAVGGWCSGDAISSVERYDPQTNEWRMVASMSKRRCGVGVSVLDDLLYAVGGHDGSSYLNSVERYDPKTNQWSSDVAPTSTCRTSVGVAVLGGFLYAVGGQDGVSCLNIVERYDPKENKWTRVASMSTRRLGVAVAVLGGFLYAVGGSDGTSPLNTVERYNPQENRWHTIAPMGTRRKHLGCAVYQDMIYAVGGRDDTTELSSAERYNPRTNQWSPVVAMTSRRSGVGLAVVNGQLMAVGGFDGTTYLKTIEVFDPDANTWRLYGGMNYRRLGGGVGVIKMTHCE
Description: (C) For SPR experiments, KLHL20 and KLHL3 Kelch domains were immobilized by amine coupling on different flow cells of a CM5 sensor chip. Indicated DAPK1 peptides were injected subsequently at concentrations of 1.6 μM, 3.1 μM, 6.2 μM, 12.5 μM, 25 μM, 50 μM, 100 μM, and 200 μM. Binding was monitored at a flow rate of 30 μL/min. […] Data were fitted using a steady-state affinity equation.
Assays were performed at 25°C using a BIACORE S200 (GE Healthcare) surface plasmon resonance (SPR) instrument. The Kelch domains of KLHL20 and KLHL3 were immobilized on sensor chip CM5 (GE Healthcare) using amine coupling. […] Binding was monitored using a flow rate of 30 μL/min. The peptide analytes were prepared in HBS-P buffer (GE Healthcare). Data reported were after reference flow cell signal subtraction. Data were analyzed by one-site steady-state affinity analysis using the Biacore S200 Evaluation software and the fitting equation Req=CRmax/KD+C+RI . (RI, bulk refractive index contribution; Rmax, maximum response; KD, dissociation constant; C, analyte concentration).

Substance | Binding affinity for KEAP1 Kelch domain (Kelch domain of KEAP1) | KD (μM), Immobilized Protein: KLHL20 (Kelch domain of KLHL20)
NRF2: NRF2, interaction with the Kelch domain of KEAP1 | low nanomolar | 
SKLRELGRRDAADFLLKA [DAPK1 peptide spanning the C-terminal site residues 1,378–1,395] |  | N.B
